Experimental data taken from PMC12621043, “Un-LOK-ing a New Approach for Conformational Selective Targeting of STK10 (LOK)” (ACS Medicinal Chemistry Letters, 2025).

What was measured:
Assay in all cases: DSF Tm panel
Assay type in all cases: binding
Conditions in all cases: 10 μM compound
GPRK5A = target: T1, GPRK5A (Homo sapiens, UniProt P34947)
T1 construct: purchased in-house DSF kinase panel (SGC-style construct names; the trailing letter is the construct ID)

RPS6KA1A = tested on: RPS6KA1A
FESA = target: T2, FESA (Homo sapiens, UniProt P07332)
T2 construct: purchased in-house DSF kinase panel (SGC-style construct names; the trailing letter is the construct ID)
T2 sequence (P07332 whole entry): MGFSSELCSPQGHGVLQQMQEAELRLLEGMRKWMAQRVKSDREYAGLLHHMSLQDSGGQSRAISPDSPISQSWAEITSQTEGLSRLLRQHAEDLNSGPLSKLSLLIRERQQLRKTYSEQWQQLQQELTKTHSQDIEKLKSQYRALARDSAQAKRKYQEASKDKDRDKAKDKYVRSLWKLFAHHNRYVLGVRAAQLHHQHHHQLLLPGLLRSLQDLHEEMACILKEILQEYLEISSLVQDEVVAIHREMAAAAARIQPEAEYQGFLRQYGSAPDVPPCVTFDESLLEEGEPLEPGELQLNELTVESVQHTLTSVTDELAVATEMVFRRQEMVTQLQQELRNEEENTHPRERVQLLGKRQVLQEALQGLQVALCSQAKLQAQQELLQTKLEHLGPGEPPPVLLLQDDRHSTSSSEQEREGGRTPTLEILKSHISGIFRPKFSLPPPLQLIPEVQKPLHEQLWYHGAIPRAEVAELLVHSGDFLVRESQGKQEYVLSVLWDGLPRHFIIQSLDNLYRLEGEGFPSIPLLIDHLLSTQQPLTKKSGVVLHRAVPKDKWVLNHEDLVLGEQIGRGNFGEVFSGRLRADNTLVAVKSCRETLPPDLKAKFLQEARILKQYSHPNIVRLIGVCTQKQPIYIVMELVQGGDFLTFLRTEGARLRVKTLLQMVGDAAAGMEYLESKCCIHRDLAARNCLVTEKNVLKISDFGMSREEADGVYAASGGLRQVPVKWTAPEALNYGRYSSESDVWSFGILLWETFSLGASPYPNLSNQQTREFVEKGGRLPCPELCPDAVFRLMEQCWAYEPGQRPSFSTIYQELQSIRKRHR

UKL3A (ULK3A) = target: T3, UKL3A (ULK3A) (Homo sapiens, UniProt Q6PHR2)
T3 construct: purchased in-house DSF kinase panel (SGC-style construct names; the trailing letter is the construct ID)
T3 sequence (Q6PHR2 1-279): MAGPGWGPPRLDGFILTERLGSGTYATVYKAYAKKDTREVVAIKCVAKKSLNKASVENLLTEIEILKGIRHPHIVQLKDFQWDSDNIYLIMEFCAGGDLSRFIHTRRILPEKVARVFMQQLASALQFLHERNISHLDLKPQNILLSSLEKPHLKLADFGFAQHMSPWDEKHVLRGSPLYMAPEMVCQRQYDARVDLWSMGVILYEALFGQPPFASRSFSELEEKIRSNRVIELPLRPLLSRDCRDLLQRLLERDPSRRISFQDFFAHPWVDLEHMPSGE

MAP2K1A = target: T4, MAP2K1A (Homo sapiens, UniProt Q02750)
T4 construct: purchased in-house DSF kinase panel (SGC-style construct names; the trailing letter is the construct ID)
T4 sequence (Q02750 68-361): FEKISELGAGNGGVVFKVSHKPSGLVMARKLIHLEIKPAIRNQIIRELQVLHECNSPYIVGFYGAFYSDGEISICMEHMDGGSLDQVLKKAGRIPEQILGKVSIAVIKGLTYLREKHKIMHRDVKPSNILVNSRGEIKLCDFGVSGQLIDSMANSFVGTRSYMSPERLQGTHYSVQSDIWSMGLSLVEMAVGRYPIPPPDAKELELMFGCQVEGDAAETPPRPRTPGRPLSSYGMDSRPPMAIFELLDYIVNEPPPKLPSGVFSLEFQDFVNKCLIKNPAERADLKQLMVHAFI
Procedure: (§1) The synthesized urea-based derivatives were evaluated in a panel of kinases by differential scanning fluorescence (DSF) to investigate their selectivity profile. A positive ΔT m in the DSF assay indicates stabilization of the protein upon ligand binding in comparison to its apo state, with higher thermal shifts generally correlating with stronger binding. For this purpose, we used our internal kinase selectivity panel (∼90 kinases) along with staurosporine as a positive control. […] This was also reflected in the overall low selectivity score (S) throughout the series, which is determined by the ratio between the number of kinases that are stabilized above 5 °C and the total number of kinases tested (Figure ). Motivated by these findings, we further validated the entire series by orthogonal binding and activity assays to determine the in vitro and cellular potency and selectivity of the developed series in comparison to the selected reference compounds. […]
(§2) was performed as previously described.[1,2] Briefly, recombinant protein kinase domains at a concentration of 2 μM were mixed with 10 μM compound in a buffer containing 20 mM HEPES, […]
(§3) probe (1 µl per mL). Subsequently, temperature-dependent protein unfolding profiles were […]
(§4) emission filters were set to 465 nm and 590 nm, respectively. The temperature was raised with a step rate of 3 °C per minute. […]
(§5) inflection point of the transition curve. […]
(§6) previously.[3] In brief, STK10, STK3, STK4 and SLK were obtained as plasmids cloned in […]
(§7) Plasmids were transfected into
(§8) KD concentration taken from TracerDB (tracerdb.org)[4] were pipetted into white 384-well

CHEK2A = target: T5, CHEK2A (Homo sapiens, UniProt O96017)
T5 construct: purchased in-house DSF kinase panel (SGC-style construct names; the trailing letter is the construct ID)
T5 sequence (O96017 210-531): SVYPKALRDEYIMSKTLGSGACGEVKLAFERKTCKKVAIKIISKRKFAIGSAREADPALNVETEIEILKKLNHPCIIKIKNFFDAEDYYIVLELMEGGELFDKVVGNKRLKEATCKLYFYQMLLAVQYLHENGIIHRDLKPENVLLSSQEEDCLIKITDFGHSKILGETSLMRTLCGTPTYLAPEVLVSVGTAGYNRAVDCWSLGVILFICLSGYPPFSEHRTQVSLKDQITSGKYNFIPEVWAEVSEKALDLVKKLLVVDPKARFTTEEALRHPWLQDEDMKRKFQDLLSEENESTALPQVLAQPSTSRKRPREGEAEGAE
Procedure: as §1, §2, §3, §4, §5, §6, §7, §8

EPHA5A = target: T6, EPHA5A (Homo sapiens, UniProt P54756)
T6 construct: purchased in-house DSF kinase panel (SGC-style construct names; the trailing letter is the construct ID)
T6 sequence (P54756 653-939): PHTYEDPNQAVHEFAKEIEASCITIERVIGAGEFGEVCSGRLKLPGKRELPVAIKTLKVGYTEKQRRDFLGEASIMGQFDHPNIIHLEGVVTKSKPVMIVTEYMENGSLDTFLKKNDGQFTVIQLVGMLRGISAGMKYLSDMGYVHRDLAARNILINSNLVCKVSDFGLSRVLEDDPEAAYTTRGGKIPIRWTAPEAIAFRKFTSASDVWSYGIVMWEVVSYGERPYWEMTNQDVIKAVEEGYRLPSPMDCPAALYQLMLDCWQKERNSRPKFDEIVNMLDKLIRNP
Procedure: as §1, §2, §3, §4, §5, §6, §7, §8

GSK3BB = target: T7, GSK3BB (Homo sapiens, UniProt P49841)
T7 construct: purchased in-house DSF kinase panel (SGC-style construct names; the trailing letter is the construct ID)
T7 sequence (P49841 35-386): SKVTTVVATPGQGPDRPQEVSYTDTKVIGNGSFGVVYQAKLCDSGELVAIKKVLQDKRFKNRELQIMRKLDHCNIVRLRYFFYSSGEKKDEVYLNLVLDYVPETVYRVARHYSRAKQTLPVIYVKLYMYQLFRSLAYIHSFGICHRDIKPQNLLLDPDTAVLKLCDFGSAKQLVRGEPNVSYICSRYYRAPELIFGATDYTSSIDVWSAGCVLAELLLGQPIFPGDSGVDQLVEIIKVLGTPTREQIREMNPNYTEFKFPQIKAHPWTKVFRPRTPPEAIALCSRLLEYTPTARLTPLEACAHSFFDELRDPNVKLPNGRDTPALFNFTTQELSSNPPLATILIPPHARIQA
Procedure: as §1, §2, §3, §4, §5, §6, §7, §8

TTKA = target: T8, TTKA (Homo sapiens, UniProt P33981)
T8 construct: purchased in-house DSF kinase panel (SGC-style construct names; the trailing letter is the construct ID)
T8 sequence (P33981 519-808): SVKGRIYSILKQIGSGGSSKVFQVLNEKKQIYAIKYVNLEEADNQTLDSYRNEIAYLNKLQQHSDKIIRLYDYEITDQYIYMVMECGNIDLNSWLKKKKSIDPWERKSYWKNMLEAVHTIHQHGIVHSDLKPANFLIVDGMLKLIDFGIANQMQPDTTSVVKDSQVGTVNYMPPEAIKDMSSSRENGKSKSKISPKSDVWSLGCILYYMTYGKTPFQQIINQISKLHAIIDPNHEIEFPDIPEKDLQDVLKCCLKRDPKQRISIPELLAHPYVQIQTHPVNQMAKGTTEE
Procedure: as §1, §2, §3, §4, §5, §6, §7, §8

PAK4A = target: T9, PAK4A (Homo sapiens, UniProt O96013)
T9 construct: purchased in-house DSF kinase panel (SGC-style construct names; the trailing letter is the construct ID)
T9 sequence (O96013 291-591): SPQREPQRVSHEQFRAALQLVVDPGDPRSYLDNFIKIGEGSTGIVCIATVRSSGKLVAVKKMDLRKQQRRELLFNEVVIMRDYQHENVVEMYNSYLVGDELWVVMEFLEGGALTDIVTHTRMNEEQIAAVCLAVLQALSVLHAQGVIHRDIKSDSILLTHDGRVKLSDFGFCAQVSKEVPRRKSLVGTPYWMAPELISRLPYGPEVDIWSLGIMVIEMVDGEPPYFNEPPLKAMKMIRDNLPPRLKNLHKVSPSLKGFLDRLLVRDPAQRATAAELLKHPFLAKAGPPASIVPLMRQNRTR
Procedure: as §1, §2, §3, §4, §5, §6, §7, §8

FGFR1B = target: T10, FGFR1B (Homo sapiens, UniProt P11362)
T10 construct: purchased in-house DSF kinase panel (SGC-style construct names; the trailing letter is the construct ID)
T10 sequence (P11362 456-767): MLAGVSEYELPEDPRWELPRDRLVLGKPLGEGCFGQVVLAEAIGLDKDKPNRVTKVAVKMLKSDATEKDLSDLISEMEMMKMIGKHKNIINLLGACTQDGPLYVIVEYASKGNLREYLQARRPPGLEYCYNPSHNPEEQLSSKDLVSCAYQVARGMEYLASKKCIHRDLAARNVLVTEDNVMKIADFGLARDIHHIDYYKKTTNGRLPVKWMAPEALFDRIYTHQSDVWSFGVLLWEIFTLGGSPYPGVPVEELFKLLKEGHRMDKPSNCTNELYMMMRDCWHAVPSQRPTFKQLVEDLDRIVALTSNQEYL
Procedure: as §1, §2, §3, §4, §5, §6, §7, §8

DYRK2A = target: T11, DYRK2A (Homo sapiens, UniProt Q92630)
T11 construct: purchased in-house DSF kinase panel (SGC-style construct names; the trailing letter is the construct ID)
T11 sequence (Q92630 1-601): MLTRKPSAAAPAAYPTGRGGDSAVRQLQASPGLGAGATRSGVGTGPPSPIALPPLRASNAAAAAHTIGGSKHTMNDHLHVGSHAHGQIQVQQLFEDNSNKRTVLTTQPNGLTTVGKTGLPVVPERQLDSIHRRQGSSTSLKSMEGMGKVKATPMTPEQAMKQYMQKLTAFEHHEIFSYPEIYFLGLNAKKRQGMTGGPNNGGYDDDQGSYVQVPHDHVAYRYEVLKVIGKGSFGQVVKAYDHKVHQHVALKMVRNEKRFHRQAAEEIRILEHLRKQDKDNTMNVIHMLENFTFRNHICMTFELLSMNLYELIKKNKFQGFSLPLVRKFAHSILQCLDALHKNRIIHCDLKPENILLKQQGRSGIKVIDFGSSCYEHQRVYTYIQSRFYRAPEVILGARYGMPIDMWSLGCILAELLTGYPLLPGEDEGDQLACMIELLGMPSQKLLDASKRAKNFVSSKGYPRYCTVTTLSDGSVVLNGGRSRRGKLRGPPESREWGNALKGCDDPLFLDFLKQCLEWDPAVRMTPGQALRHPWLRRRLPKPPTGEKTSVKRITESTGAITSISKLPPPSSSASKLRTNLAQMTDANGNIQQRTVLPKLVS

MAPK1A = target: T12, MAPK1A (Homo sapiens, UniProt P28482)
T12 construct: purchased in-house DSF kinase panel (SGC-style construct names; the trailing letter is the construct ID)
T12 sequence (P28482 whole entry): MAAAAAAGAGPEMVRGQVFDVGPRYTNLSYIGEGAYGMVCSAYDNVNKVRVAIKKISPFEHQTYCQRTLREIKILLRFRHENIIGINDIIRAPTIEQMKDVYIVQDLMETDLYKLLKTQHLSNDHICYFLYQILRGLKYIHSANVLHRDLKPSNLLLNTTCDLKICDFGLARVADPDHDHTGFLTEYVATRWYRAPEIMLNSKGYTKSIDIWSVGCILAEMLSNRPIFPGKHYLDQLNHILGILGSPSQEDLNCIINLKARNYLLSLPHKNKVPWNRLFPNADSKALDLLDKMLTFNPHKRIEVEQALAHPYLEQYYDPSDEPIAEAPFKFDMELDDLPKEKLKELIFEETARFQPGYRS

T1 sequence (P34947 186-514): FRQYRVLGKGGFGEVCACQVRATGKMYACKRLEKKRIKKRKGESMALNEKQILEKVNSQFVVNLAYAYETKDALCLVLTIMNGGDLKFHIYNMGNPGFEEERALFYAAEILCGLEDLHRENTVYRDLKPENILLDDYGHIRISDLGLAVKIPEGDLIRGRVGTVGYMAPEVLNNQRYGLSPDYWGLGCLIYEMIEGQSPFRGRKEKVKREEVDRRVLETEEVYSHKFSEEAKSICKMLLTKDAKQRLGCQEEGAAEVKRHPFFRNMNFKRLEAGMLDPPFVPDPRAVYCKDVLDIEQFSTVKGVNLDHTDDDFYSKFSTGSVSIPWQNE

ΔTm at 10 µM (GPRK5A) [°C] | ΔTm at 10 µM (FESA) [°C] | ΔTm at 10 µM (UKL3A (ULK3A)) [°C] | ΔTm at 10 µM (MAP2K1A) [°C] | ΔTm at 10 µM (CHEK2A) [°C] | ΔTm at 10 µM (EPHA5A) [°C] | ΔTm at 10 µM (GSK3BB) [°C] | ΔTm at 10 µM (TTKA) [°C] | ΔTm at 10 µM (PAK4A) [°C] | ΔTm at 10 µM (FGFR1B) [°C] | ΔTm at 10 µM (DYRK2A) [°C] | ΔTm at 10 µM (MAPK1A) [°C] | Compound | ΔTm RPS6KA1A (RPS6KA1A)
2.2 | 0.5 | 4.5 | 0.7 | 6.5 | 1.4 | 1.6 | 2 | 2.2 | 1.9 | 3.9 | 1.6 | COc1cc(CNC(=O)Nc2ccc3cc2OCCOCCNc2ccn4ncc-3c4n2)ccc1F [compound 33] | 0,5 °C
0.5 | 1.4 | 4.4 | 0.6 | 5.1 | 0.7 | 1.3 | 1.6 | 1.5 | 1.4 | 3.1 | 0.6 | COc1cccc(CNC(=O)Nc2ccc3cc2OCCOCCNc2ccn4ncc-3c4n2)c1 [compound 30] | 0,6 °C
1.5 | 0.4 | 4.6 | 0.1 | 4.5 | 0.3 | 0.6 | 1.4 | 0.1 | 1.5 | 0.2 | 0.1 | O=C(NCc1ccc(Cl)cc1)Nc1ccc2cc1OCCOCCNc1ccn3ncc-2c3n1 [compound 19] | 0,4 °C
1.4 | 0.6 | 4.6 | 1.2 | 5 | 0.7 | 0.2 | 1.8 | 0.9 | 1.1 | 0.7 | 0.3 | O=C(NCc1ccc(Cl)cc1F)Nc1ccc2cc1OCCOCCNc1ccn3ncc-2c3n1 [compound 21] | 1,1 °C
1.2 | 3 | 6.8 | -0.1 | 6.5 | 0.1 | 1.1 | 1.5 | -0.2 | 2.4 | 3.7 | -0.1 | O=C(NCc1ccccc1)Nc1ccc2cc1OCCOCCNc1ccn3ncc-2c3n1 [compound 16] | 1,4 °C
